From patent publication US5240918A, “2-(substituted imino)-thiazolidines and process for the preparation thereof” (EGIS Gyogyszergyar, priority 1992, dated 1993) come the findings set out here.

Where two headings read alike, the source gives them in different places.

For series [1], the system named is experimental coronaria insufficiency induced with vasopressin. As to the kind of experiment: Antianginal effect (vasopressin-induced experimental coronaria insufficiency, ECG wave T; method of Nieschulz et al.). Format: in vivo. To be noted: male rats, 2 minutes prior to vasopressin; for ED50: Rattus norvegicus, iv. The procedure:
Method: the test was carried out on rats by using the method of Nieschulz, E., Popendiker, K. and Hoffmann, I. (Arzneimittel Forschung, 5, 680 /1955/).
Male rats of 180-220 g body weight were narcotized with chloralese-urethane(70-700 mg/kg ip.). The ECG was registered with needle electrodes in standard II leading. The experimental coronaria insufficiency was induced with […].). The height of wave T in ECG was measured before and after the administration of vasopressin in both the control and treated groups. Test compounds were administered intravenously 2 minutes prior to the treatment with vasopressin.

Series [2] is described as follows: Toxicity (LD50) and therapeutical index, Table II. To be noted: mouse, in vivo.
A further series concerns acetic acid "writhing". As to the kind of experiment: Acetic acid "writhing test" on mice (analgesic effect; method of Newbould). To be noted: Mus musculus, po. Format: in vivo. The protocol:
2. Acetic acid "writhing test" on mice (analgesic effect) Method: Newbould, Brit. […] In the period between the 5th and 10th minutes following the administration of acetic acid the number of the characteristic "writhing" responses is counted for each animal and the "total writhing number" (within 5 minutes) is expressed as the percentage of the value obtained for the control animals. The mice are treated with the test compound and the carrier, respectively, orally 1 hour before the administration of acetic acid. 12 animals are used per dose.
Background: Writhing tests count abdominal constrictions after an irritant is injected.

[3] abbreviates: white mice, orally 1 hour before acetic acid, writhing counted 5th to 10th minutes, 12 animals per dose, read-out: ID50 (the source's name).

The LD50 is the dose expected to kill half of the subjects tested. Low readings indicate greater toxicity, high ones lower toxicity.

Regarding `N#CN=C1SCCN1c1cc(Cl)ccc1[N+](=O)[O-]` [Example 46, 2-Cyanimido-3-(5'-chloro-2'-nitrophenyl)thiazolidine], in series [1], the ED50 was found to be 1.76 mg/kg and the “Activity (2 mg/kg iv.)” value was 62%.
With `CC(=O)Oc1ccccc1C(=O)O` [Acetylsalicylic acid, reference compound], in series [2], the LD50 was 1350 mg/kg and the selectivity ratio was found to be 5.2. The ED50 in the series with acetic acid "writhing" (read-out: ID50 mg/kg) stood at 261 mg/kg.
For the compound `C=CCNC(=S)N=C1SCCN1c1cc(Cl)ccc1[N+](=O)[O-]` [Example 20, 2-(N'-Allylthiocarbamoylimino)-3-(5'-chloro-2'-nitrophenyl)-thiazolidine], in series [1], the ED50 was determined as 1.45 mg/kg and the “Activity (2 mg/kg iv.)” value amounted to 78%.
For the compound `CC(=O)N=C1SCCN1c1ccc(Cl)cc1[N+](=O)[O-]` [Example 24, 2-Acetylimino-3-(4'-chloro-2'-nitrophenyl)-thiazolidine], in series [2], the 50% lethal dose (LD50) stood at 700 mg/kg and the selectivity ratio stood at 10.9. For the same compound, the ED50 in the series on acetic acid "writhing" (setting [3]) stood at 37 mg/kg.
For `CC(=O)N=C1SCCN1c1ccc(C(F)(F)F)cc1[N+](=O)[O-]` [Example 26, 2-Acetylimino-3-(4'-trifluoromethyl-2'-nitrophenyl)-thiazolidine], in series [2], the median lethal dose (LD50) amounted to 2000 mg/kg and the selectivity ratio amounted to 11.8. The ED50 with acetic acid "writhing" (setting [3]) was found to be 170 mg/kg.
Regarding `CC(=O)N=C1SCCN1c1ccccc1[N+](=O)[O-]` [Example 25, L-Acetylimino=3-(2-nitrophenyl)-thiazolidine], in series [2], the median lethal dose (LD50) was 2000 mg/kg and the selectivity ratio turned out to be 11.1. Further, the ED50 with acetic acid "writhing" (setting [3]) turned out to be 180 mg/kg.
